Earlier results in patent US20220079896A1, “DELAYED RELEASE COMPOSITIONS” (AMNEAL COMPLEX PRODUCTS RESEARCH LLC, priority 2020, published 2022).

| SMILES | mean single-dose terminal elimination half-life |
| --- | --- |
| NC(=O)C[S@@+]([O-])C(c1ccccc1)c1ccccc1 [Armodafinil, (−)-2-[(R)-(diphenylmethyl)sulfinyl] acetamide] | approximately 13 hours |
| NC(=O)C[S+]([O-])C(c1ccccc1)c1ccccc1 (centres unmarked) [modafinil] | approximately 13 hours |
